Assay results taken from EP0407137B1, “Benzazine compounds and pharmaceutical uses thereof” (priority 1989, dated 1991).
Counter-ions that a name gives are not always drawn.

What was measured:
5-HT₃ receptor = assay: Antagonistic effect against von Bezold-Jarish reflex caused by serotonin in anesthetized rats; assay type: in vivo, Male Wistar rats; conditions: i.v., 5 minutes before serotonin (20 µg/kg i.v.), dose required to antagonize the reflex bradycardia by 50%
Experimental: 5-HT₃ receptor blocking effects of the compounds of the present invention were evaluated based on the antagonistic effects against van Bezold-Jarish reflex caused by administering serotonin to anesthetized rats as an index according to Forzard's method described in Naunyuschmiedeberg's Arch. Pharmacol., vol.326, pp36, 1984.
Male Wistar rats weighing 350-450 g were anesthetized with an intraperitoneal injection of 1.25g/kg of urethane. The left jugular vein was cannulated for the intravenous injection and the left femoral […] was cannulated for the measurement of blood pressure and heart rate. Serotonin (20 µg/kg) was intravenously injected, and the compounds of the present invention were intravenously injected 5 minutes before the challenge with serotonin. The antagonistic activity of the compounds of the present invention against the caused reflex bradycardia was measured and the effective dose (ED₅₀, µg/kg), the dose required to antagonize the maximum activity by 50%, was determined.

[1] = target: T1, serotonin 1A (5-HT1A) receptor (Rattus norvegicus, UniProt P19327); assay: Serotonin binding test (tritium 8-OH-DPAT, crude synaptosome fraction from hippocampus); design: species or system Wistar rat; conditions: tritium 8-OH-DPAT 0.2 nM, 37°C for 12 minutes, rat hippocampus synaptosomes; read-out: Serotonin binding test IC₅₀
T1 sequence (P19327 1-422): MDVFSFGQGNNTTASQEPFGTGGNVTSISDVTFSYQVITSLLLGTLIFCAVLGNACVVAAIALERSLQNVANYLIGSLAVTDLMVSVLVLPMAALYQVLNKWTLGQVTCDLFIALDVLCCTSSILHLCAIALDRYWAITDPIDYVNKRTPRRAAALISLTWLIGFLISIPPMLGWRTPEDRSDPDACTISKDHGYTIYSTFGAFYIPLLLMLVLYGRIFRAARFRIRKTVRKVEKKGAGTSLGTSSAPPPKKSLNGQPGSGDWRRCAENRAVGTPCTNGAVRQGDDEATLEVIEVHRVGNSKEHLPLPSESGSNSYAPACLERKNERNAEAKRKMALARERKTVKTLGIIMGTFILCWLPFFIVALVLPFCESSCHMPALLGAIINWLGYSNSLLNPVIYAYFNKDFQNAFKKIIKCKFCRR
Experimental: Specific serotonin 1A (5-HT1A) receptor binding test was conducted in accordance with the manner described in Journal of the Neurochemistry, vol.44, page 1685, 1985.
Crude synaptosome fraction was separated from hippocampus of 9 to 10 weeks-aged Wistar rat and suspended into 50 mM tris-hydrochloric acid buffer solution (pH 7.4) containing 1 mM manganese chloride.
Next, to the resulting synaptosome suspension were added the test compound of the present invention at several concentrations and tritium 8-OH-DPAT at the terminal concentration of 0.2 nM, and the mixture was allowed to react at 37°C for 12 minutes. After completion of the reaction, the reaction mixture was suction filtered through Whatman GF/B glass filter. The glass filter was washed with 50 mM tris-hydrochloric acid buffer solution (pH 7.4), and then the radioactivity of the residue remaining on the glass filter was measured by liquid scintillation counter. Non-specific binding was determined under the presence of 10⁻⁵M serotonin (5-HT). 50% Inhibition concentration (IC₅₀) of test compound was graphically determined.

dopamine D₂ receptor = target: T2, dopamine D₂ receptor (Rattus norvegicus, UniProt P61169); assay: Dopamine D₂ binding test (tritium Spiperone, crude synaptosome fraction from corpus striatum); design: species or system Wistar rats; conditions: tritium Spiperone 0.2 nM, 37°C for 20 minutes, rat corpus striatum synaptosomes; read-out: Dopamine D₂ binding test IC₅₀
T2 construct: Crude synaptosome fraction was separated from corpus striatum of 9 to 10 weeks-aged Wistar rats; from tissue; host or cells: rat corpus striatum, crude synaptosome fraction
Experimental: Crude synaptosome fraction was separated from corpus striatum of 9 to 10 weeks-aged Wistar rats and suspended into 50 mM tris-hydrochloric acid buffer solution (pH 7.1) containing 120 mM sodium chloride, 5 mM potassium chloride, 2 mM calcium chloride, 1 mM magnesium chloride, 10 µM pargyline and 0.1% ascorbic acid. Next, to the resulting synaptosome suspension were added the test compound of the present invention at several concentrations and tritium Spiperone at the terminal concentration of 0.2 nM, and the mixture was allowed to react at 37°C for 20 minutes. After completion of the reaction, the reaction mixture was suction filtered through Whatman GF/B glass filter. The glass filter was washed with 50 mM tris-hydrochloric acid buffer solution (pH 7.7), and then the radioactivity of the residue remaining on the glass filter was measured by liquid scintillation counter. Non-specific binding was determined under the presence of […]. 50% Inhibition concentration (IC₅₀) of the test compound was graphically determined.

T2 sequence (P61169 whole entry): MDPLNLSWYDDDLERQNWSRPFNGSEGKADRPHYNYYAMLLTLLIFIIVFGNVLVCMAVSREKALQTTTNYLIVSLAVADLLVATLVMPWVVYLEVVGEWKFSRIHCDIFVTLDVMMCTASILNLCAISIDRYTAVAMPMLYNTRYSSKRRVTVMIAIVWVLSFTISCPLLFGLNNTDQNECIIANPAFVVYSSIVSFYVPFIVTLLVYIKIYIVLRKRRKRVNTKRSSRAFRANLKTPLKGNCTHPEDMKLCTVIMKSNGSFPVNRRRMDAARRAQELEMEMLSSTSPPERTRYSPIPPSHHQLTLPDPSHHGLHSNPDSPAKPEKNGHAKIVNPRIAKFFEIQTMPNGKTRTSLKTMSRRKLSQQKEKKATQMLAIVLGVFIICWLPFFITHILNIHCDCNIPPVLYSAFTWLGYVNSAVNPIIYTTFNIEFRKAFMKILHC

| IC50 [1] | IC50 (dopamine D₂ receptor) | SMILES | ED₅₀ (5-HT₃ receptor) |
| --- | --- | --- | --- |
|  |  | CN1CCOc2c(C(=O)NC3CN4CCC3CC4)cc(Cl)cc21.Cl (centres unmarked) [Example 1, 6-chloro-4-methyl-N-(3-quinuclidinyl)-3,4-dihydro-2H-1,4-benzoxazine-8-carboxamide hydrochloride] | 0.28 µg/kg |
|  |  | CN1CC(C)(C)Oc2c(C(=O)NC3CN4CCC3CC4)cc(Cl)cc21.Cl (centres unmarked) [Example 3, 6-chloro-2,2,4-trimethyl-N-(3-quinuclidinyl)-3,4-dihydro-2H-1,4-benzoxazine-8-carboxamide hydrochloride] | 0.12 µg/kg |
|  |  | CN1CC(C)(C)Oc2c(C(=O)N[C@H]3CN4CCC3CC4)cc(Cl)cc21.Cl [Example 4, (R)-6-chloro-2,2,4-trimethyl-N-(3-quinuclidinyl)-3,4-dihydro-2H-1,4-benzoxazine-8-carboxamide hydrochloride] | 0.17 µg/kg |
|  |  | CN1CC(C)(C)Oc2c(C(=O)N[C@@H]3CN4CCC3CC4)cc(Cl)cc21.Cl [Example 5, (S)-6-chloro-2,2,4-trimethyl-N-(3-quinuclidinyl)-3,4-dihydro-2H-1,4-benzoxazine-8-carboxamide hydrochloride] | 0.11 µg/kg |
|  |  | CN1CCOc2c(C(=O)N[C@H]3CN4CCC3CC4)cc(Cl)cc21 [Example 7, (R)-6-chloro-4-methyl-N-(3-quinuclidinyl)-3,4-dihydro-2H-1,4-benzoxazine-8-carboxamide] | 0.73 µg/kg |
| 0.75 µM |  | CCN1CCCC1CNC(=O)c1cc(Cl)cc2c1OCCN2C (centres unmarked) [Example 13, 6-chloro-4-methyl-N-[(1-ethyl-2-pyrrolidinyl)methyl]-3,4-dihydro-2H-1,4-benzoxazine-8-carboxamide hydrochloride] |  |
| 0.062 µM |  | CCCCN1CCCC1CNC(=O)c1cc(Cl)cc2c1OCCN2C (centres unmarked) [Example 14, 6-chloro-4-methyl-N-[(1-butyl-2-pyrrolidinyl)-methyl]-3,4-dihydro-2H-1,4-benzoxazine-8-carboxamide hydrochloride] |  |
| 0.024 µM | 0.69 µM | CCCCCCCCCN1CCC[C@@H]1CNC(=O)c1cc(Cl)cc2c1OCCN2C [Example 38, (R)-(+)-6-chloro-4-methyl-N-[(1-nonyl-2-pyrrolidinyl)methyl]-3,4-dihydro-2H-1,4-benzoxazine-8-carboxamide] |  |
| 0.42 µM | 0.63 µM | CCCCN1CCC[C@@H]1CNC(=O)c1cc(Cl)cc2c1OCCN2C [Example 39, (R)-(+)-N-[(1-butyl-2-pyrrolidinyl)methyl]-6-chloro-4-methyl-3,4-dihydro-2H-1,4-benzoxazine-8-carboxamide] |  |
